This passage reports GI50 and TGI results from PubChem BioAssay (NCI).

Holding throughout (assay): NCI anticancer screen, dose series, 48 h
Assay [1] relates to CCRF-CEM leukemia.
The subject of assay [2] is RXF 393 renal.
For assay [3], the system named is IGROV1 ovarian.
For assay [4], the system named is UACC-62 melanoma.
In assay [5] the test system is RPMI-8226 leukemia.
Assay [6] has as its system OVCAR-8 ovarian.
Assay [7] has as its system MDA-MB-435.
Assay [8] deals with SNB-19 CNS.
Assay [9] relates to SF-539 CNS.
In assay [10] the test system is NCI/ADR-RES ovarian.

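Cultured in 96-well plates, cells were exposed to test compound for 48 hours across five concentrations. GI50 marks 50% less growth. Definition used: TGI = concentration required for complete inhibition of growth.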 Where only a bound is given, the exact number is not on record here.

On to `CCOC(=O)/C(=C(/C)NCC(C)C)c1cc(O)c(O)c2c(C)cc(=O)[nH]c12`, for which the GI50 in assay [1] was 1.4 µM; in [2], 1.18 µM; in assay [3], 9.21 µM; in assay [4], 7.12 µM; in [5] it was 3.5 µM; in assay [6] it was 4.87 µM. The GI50 was 5.93 µM in assay [7], 13.8 µM in assay [8], 5.52 µM in assay [9] and 2.42 µM in [10]. Further, the TGI in assay [1] was 55.5 µM; in [2] it was 20.4 µM; in assay [3], above 100 µM; in [4], above 100 µM; in [5] it was above 100 µM; in [6] it was above 100 µM. Moreover, the TGI in [7] was above 100 µM; in [8], above 100 µM; in assay [9], 85.1 µM; in assay [10] it was 95.7 µM.

Consider `S=c1nc(Cl)cc2[nH]c(Cl)cn12`, for which the TGI is 6.04 µM in [1]; above 100 µM in assay [2]; 30.2 µM in assay [3]; above 100 µM in assay [4]; 43.3 µM in [5]; 57.4 µM in [6]. In addition, the TGI was 4.74 µM in assay [7], above 100 µM in assay [8], 5.69 µM in assay [9] and 6.89 µM in assay [10].

As for `OCC1OC(n2cnc3c(Cl)nc(Cl)cc32)C(O)C1O` (stereo not given), the GI50 in [1], in assay [2], in assay [3], in assay [4], in [5] and in assay [6] was above 100 µM throughout. Besides, the GI50 in [7], in assay [8], in assay [9] and in assay [10] was above 100 µM throughout. Moreover, the TGI in assay [1], in [2], in assay [3], in assay [4], in assay [5] and in assay [6] was above 100 µM in each case. Also, the TGI in assay [7], in [8], in assay [9] and in assay [10] was above 100 µM throughout.

In the case of `N#CS.N=C=S.N=C=S.[Cu+2].[NH2-].[NH2-].[NH2-].[NH2-].c1ccc2ncccc2c1`, the GI50 in assay [1] is 24.3 µM; in assay [2], 25.5 µM; in [3], 55.7 µM; in assay [4], 19.4 µM; in [5], above 100 µM; in assay [6], above 100 µM. Also, the GI50 was 19.4 µM in assay [7], 18.1 µM in assay [8], above 100 µM in assay [9] and above 100 µM in assay [10]. In addition, the TGI in [1] was 57.5 µM; in assay [2], 44 µM; in assay [3], above 100 µM; in assay [4], 37 µM; in assay [5] it was above 100 µM; in assay [6], above 100 µM. Also, the TGI is 41.3 µM in [7], 32.9 µM in assay [8], above 100 µM in [9] and above 100 µM in assay [10].

On to `CCN(CC)CCCC(C)N=c1cc(Nc2cc(=NC(C)CCCN(CC)CC)c3cc(OC)ccc3o2)oc2ccc(OC)cc12` (stereo not given), for which the GI50 was 2 µM in assay [1]; 0.528 µM in assay [2]; 1.89 µM in assay [3]; 1.04 µM in [4]; 1.24 µM in assay [5]; 0.441 µM in assay [6]. For the same compound, the GI50 in [7] was 0.871 µM; in assay [8], 1.99 µM; in [9], 0.803 µM; in assay [10], 2.09 µM. The TGI in [1] is 16.3 µM; in assay [2], 1.17 µM; in [3], 8.72 µM; in assay [4] it was 2.39 µM; in assay [5], 3.41 µM; in assay [6] it was 3.78 µM. For the same compound, the TGI stood at 1.68 µM in [7], 13 µM in assay [8], 1.5 µM in [9] and 15.3 µM in [10].

With `CC1=C([Te]c2ccc(O)cc2)C(=O)c2ccccc2C1=O`, the GI50 was 0.806 µM in assay [1]; 2.42 µM in assay [2]; 1.08 µM in assay [3]; 1.6 µM in assay [4]; 1.16 µM in [5]; 2.4 µM in assay [6]. Also, the GI50 was 2.35 µM in [7], 2.8 µM in [8], 1.8 µM in assay [9] and 2.42 µM in assay [10]. In addition, the TGI came to 4.38 µM in assay [1]; 9.46 µM in assay [2]; 4.91 µM in assay [3]; 4.01 µM in assay [4]; 4.51 µM in [5]; 8.34 µM in assay [6]. For the same compound, the TGI in [7] is 5.79 µM; in assay [8], 10.7 µM; in [9], 4.23 µM; in [10] it was 8.3 µM.

As to `Nc1c(C(=O)c2ccc(CCCN3CCOCC3)cc2)cnn1-c1ccc(F)cc1`, the GI50 in assay [1] was above 25 µM; in assay [2], above 25 µM; in [3], above 25 µM; in assay [4], above 25 µM; in assay [5] it was above 15.4 µM; in assay [6], above 25 µM. Moreover, the GI50 in [7], in assay [8], in assay [9] and in [10] was above 25 µM throughout. Further, the TGI in [1], in assay [2], in [3], in assay [4], in assay [5] and in [6] was above 25 µM in each case. Moreover, the TGI in assay [7], in assay [8], in [9] and in assay [10] was above 25 µM each time.
